Legend:
Human neurokinin (NK1) = biological target: T1, Human neurokinin (NK1) (Homo sapiens, UniProt P25103); assay: Radioligand binding, human neurokinin NK1 membranes, filtration, [125I]-Substance P; conditions: compound at 10 μM; for A8 radioligand binding, percentage inhibition: [125I]-Substance P
T1 construct: purchased Perkin Elmer Biosignal
How it was run: (§1)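 Membranes from cloned human receptors were incubated with compound and radioligand for 1 hour at room temperature. Bound ligand was collected on 0.3% PEI-soaked filters, washed with cold 50 mM Tris-HCl pH 7.4, and counted by scintillation. Percent inhibition was computed against DMSO totals and reference-ligand nonspecific wells.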

Human κ-Opioid (KOP) = biological target: T2, Human κ-Opioid (KOP) (Homo sapiens, UniProt P41145); assay: Radioligand binding, human κ-opioid (KOP) membranes, filtration, [3H]-Diprenorphine; conditions: compound at 10 μM; for A2 radioligand binding, percentage inhibition: [3H]-Diprenorphine
T2 construct: purchased Perkin Elmer Biosignal
T2 sequence (P41145 whole entry): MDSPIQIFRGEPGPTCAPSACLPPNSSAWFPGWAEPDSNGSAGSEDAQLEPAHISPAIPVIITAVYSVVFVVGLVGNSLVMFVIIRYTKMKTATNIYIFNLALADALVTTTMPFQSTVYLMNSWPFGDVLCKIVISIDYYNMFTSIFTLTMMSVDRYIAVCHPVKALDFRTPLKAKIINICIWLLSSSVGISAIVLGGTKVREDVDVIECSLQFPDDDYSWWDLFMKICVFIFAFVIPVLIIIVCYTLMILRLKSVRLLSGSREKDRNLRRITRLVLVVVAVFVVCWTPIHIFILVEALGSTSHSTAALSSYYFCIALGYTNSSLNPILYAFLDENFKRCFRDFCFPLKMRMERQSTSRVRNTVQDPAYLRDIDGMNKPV
How it was run: as §1

Human Melanocortin (MC4) = biological target: T3, Human Melanocortin (MC4) (Homo sapiens, UniProt P32245); assay: Radioligand binding, human melanocortin MC4 membranes, FlashPlate, [125I]-NDP-αMSH; conditions: compound at 10 μM; for A4 radioligand binding, percentage inhibition: [125I]-NDP-αMSH
T3 construct: purchased Perkin Elmer Biosignal
T3 sequence (P32245 whole entry): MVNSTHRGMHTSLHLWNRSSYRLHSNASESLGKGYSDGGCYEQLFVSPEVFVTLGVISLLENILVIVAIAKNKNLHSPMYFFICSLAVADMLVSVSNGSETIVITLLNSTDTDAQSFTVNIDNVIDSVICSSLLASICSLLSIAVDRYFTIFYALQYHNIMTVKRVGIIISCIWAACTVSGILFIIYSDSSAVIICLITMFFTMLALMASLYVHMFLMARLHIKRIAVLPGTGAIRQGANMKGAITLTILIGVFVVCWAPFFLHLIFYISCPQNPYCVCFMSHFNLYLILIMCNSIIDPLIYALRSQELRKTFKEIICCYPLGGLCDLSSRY
How it was run: (§2)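 Cloned human receptor membranes were coated onto FlashPlate wells and incubated with radioligand and compound (added from a 0.5 mM DMSO daughter plate) for 1 hour at room temperature in the dark. Scintillation counting gave percent inhibition, with DMSO defining total and reference ligand defining non-specific binding.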

Human opioid (ORL1) = biological target: T4, Human opioid (ORL1) (Homo sapiens, UniProt P41146); assay: Radioligand binding, human opioid ORL1 membranes, FlashPlate, [125I]-Nociceptin; conditions: compound at 10 μM; for A10 radioligand binding, percentage inhibition: [125I]-Nociceptin
T4 construct: purchased Perkin Elmer Biosignal
T4 sequence (P41146 whole entry): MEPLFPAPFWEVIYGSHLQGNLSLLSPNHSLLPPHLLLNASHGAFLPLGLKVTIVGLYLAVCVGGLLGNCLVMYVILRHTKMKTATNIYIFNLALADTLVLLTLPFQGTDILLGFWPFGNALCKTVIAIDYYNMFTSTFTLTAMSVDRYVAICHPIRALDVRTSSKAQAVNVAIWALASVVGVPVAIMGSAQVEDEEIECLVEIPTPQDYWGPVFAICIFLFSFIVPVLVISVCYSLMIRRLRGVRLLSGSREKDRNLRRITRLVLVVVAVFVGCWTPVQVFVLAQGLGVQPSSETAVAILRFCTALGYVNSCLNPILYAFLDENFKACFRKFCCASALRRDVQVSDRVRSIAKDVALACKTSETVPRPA
How it was run: as §2

Human Melanocortin (MC3) = biological target: T5, Human Melanocortin (MC3) (Homo sapiens, UniProt P41968); assay: Radioligand binding, human melanocortin MC3 membranes, FlashPlate, [125I]-NDP-αMSH; conditions: compound at 10 μM; for A3 radioligand binding, percentage inhibition: [125I]-NDP-αMSH
T5 construct: purchased Perkin Elmer Biosignal
T5 sequence (P41968 whole entry): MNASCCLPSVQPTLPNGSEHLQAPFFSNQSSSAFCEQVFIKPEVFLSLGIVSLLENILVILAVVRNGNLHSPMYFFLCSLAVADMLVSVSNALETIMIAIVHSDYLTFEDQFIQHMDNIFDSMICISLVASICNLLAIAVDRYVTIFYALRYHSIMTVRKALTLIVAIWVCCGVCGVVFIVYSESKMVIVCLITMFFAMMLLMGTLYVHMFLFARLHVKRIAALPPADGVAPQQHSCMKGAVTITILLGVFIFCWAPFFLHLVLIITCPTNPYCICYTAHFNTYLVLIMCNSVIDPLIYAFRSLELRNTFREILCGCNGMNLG
How it was run: as §2

Human μ-opioid (MOP) = biological target: T6, Human μ-opioid (MOP) (Homo sapiens, UniProt P35372); assay: Radioligand binding, human μ-opioid (MOP) membranes, FlashPlate, [3H]-Naloxone; conditions: compound at 10 μM; for A7 radioligand binding, percentage inhibition: [3H]-Naloxone
T6 construct: purchased Perkin Elmer Biosignal
T6 sequence (P35372 whole entry): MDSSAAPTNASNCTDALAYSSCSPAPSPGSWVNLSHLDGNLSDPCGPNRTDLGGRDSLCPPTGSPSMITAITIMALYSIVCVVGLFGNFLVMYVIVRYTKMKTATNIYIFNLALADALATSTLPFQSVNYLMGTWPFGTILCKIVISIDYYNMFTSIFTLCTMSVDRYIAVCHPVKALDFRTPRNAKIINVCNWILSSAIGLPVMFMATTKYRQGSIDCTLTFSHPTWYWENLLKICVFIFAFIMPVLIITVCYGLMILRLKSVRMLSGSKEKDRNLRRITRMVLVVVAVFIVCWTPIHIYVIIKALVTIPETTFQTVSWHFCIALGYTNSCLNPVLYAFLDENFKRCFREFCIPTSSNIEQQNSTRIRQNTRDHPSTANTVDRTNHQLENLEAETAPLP
How it was run: as §2

[1] = biological target: T7, Human neuropeptide Y (NPY-Y1) (Homo sapiens, UniProt P25929); assay: Radioligand binding, human neuropeptide Y NPY-Y1 membranes, FlashPlate, [125I]-PYY; conditions: compound at 10 μM; for A9 radioligand binding, percentage inhibition: [125I]-PYY
T7 construct: purchased Perkin Elmer Biosignal
T7 sequence (P25929 1-384): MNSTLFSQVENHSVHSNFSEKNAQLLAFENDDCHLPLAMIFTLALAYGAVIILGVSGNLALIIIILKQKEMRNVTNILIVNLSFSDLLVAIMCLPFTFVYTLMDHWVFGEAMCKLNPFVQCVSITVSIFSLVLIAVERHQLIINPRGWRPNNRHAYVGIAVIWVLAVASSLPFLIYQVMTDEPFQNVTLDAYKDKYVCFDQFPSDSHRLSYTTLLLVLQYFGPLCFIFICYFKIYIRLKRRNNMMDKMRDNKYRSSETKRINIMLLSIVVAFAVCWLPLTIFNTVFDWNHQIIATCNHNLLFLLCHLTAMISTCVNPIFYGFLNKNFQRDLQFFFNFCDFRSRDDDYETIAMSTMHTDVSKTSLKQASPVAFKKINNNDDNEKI
How it was run: as §2

[2] = biological target: T8, Human melanin-concentrating hormone (MCH1) (Homo sapiens, UniProt Q99705); assay: Radioligand binding, human melanin-concentrating hormone MCH1 membranes, FlashPlate, [125I]-S36057; conditions: compound at 10 μM; for A6 radioligand binding, percentage inhibition: [125I]-S36057
T8 construct: purchased Perkin Elmer Biosignal
T8 sequence (Q99705 whole entry): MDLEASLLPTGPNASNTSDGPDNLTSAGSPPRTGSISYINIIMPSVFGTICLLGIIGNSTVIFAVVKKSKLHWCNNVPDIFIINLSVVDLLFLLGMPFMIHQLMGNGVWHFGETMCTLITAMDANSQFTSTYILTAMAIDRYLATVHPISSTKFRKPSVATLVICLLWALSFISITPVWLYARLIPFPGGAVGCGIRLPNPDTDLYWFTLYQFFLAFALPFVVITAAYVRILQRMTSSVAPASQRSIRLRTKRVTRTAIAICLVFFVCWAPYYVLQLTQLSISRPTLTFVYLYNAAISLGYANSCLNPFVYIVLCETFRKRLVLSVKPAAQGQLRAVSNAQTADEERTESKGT
How it was run: as §2

Mouse urotensin (mUR2) = biological target: T9, Mouse urotensin (mUR2) (Mus musculus, UniProt Q8VIH9); assay: Radioligand binding, mouse urotensin mUR2 membranes, FlashPlate, [125I]-Urotensin II; conditions: compound at 10 μM; for A11 radioligand binding, percentage inhibition: [125I]-Urotensin II
T9 construct: purchased Perkin Elmer Biosignal
T9 sequence (Q8VIH9 1-385): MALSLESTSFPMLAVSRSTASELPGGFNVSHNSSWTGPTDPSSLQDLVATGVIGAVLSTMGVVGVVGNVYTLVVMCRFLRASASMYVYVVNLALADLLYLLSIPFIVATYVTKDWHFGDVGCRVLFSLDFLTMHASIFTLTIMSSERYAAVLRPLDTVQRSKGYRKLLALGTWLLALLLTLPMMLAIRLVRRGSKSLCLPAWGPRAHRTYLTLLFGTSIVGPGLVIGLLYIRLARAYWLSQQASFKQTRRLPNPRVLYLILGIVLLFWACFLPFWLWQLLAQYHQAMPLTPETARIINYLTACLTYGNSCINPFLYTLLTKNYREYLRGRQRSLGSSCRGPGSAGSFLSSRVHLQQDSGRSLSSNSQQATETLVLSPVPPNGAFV
How it was run: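 Cloned mouse urotensin (mUR2) receptor membranes from Perkin Elmer Biosignal were immobilized in FlashPlate microplates using a proprietary coating. Each well got 19.5 μl buffer, then 0.5 μl of DMSO, reference ligand, or compound. Adding 5 μl of [125I]-Urotensin II, diluted to 5× final concentration in binding buffer, started binding. Plates were sealed with TopSeal-A and incubated 1 hour at room temperature in the dark. Wells were counted for 30 seconds each on a TopCount after a 60-second delay, and percentage inhibition was calculated.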

Human melanocortin (MC5) = biological target: T10, Human melanocortin (MC5) (Homo sapiens, UniProt P33032); assay: Radioligand binding, human melanocortin MC5 membranes, FlashPlate, [125I]-NDP-αMSH; conditions: compound at 10 μM; for A5 radioligand binding, percentage inhibition: [125I]-NDP-αMSH
T10 construct: purchased Perkin Elmer Biosignal
T10 sequence (P33032 whole entry): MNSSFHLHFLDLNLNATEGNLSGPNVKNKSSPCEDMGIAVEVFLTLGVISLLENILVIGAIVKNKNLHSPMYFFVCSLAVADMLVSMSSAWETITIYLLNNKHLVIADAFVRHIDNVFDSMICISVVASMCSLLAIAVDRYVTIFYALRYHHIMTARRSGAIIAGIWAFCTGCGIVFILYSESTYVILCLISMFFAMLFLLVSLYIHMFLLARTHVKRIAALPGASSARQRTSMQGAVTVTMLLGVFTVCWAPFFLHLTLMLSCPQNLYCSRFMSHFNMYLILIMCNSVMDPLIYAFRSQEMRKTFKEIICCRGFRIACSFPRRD
How it was run: as §2

Human δ-opioid (DOP) = biological target: T11, Human δ-opioid (DOP) (Homo sapiens, UniProt P41143); assay: Radioligand binding, human δ-opioid (DOP) membranes, FlashPlate, [3H]-Bremazocine; conditions: compound at 10 μM; for A1 radioligand binding, percentage inhibition: [3H]-Bremazocine
T11 construct: purchased Perkin Elmer Biosignal
T11 sequence (P41143 whole entry): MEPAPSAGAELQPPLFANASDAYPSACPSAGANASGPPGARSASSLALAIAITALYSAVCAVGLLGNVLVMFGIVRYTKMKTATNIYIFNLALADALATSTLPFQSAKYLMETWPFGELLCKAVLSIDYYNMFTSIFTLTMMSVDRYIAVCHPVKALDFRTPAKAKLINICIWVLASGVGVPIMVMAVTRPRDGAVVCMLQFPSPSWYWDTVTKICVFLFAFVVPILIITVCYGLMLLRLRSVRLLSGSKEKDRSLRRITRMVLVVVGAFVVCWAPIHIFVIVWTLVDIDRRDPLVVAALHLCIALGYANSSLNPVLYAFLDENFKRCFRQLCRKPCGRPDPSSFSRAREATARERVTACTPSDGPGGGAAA
How it was run: as §2

T1 sequence (P25103 whole entry): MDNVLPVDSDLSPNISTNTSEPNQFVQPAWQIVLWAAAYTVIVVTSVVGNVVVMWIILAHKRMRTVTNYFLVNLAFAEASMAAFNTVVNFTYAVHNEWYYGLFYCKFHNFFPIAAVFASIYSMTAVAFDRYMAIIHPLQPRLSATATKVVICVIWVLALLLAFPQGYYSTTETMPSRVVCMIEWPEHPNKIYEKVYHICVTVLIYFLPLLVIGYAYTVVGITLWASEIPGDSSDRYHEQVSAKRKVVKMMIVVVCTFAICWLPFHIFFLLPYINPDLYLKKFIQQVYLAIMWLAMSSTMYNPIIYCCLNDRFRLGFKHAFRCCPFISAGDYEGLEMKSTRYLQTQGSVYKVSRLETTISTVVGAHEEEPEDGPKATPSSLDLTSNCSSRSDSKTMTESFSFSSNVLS

SMILES	A8 radioligand binding, percentage inhibition (Human neurokinin (NK1))	A2 radioligand binding, percentage inhibition (Human κ-Opioid (KOP))	A4 radioligand binding, percentage inhibition (Human Melanocortin (MC4))	A10 radioligand binding, percentage inhibition (Human opioid (ORL1))	A3 radioligand binding, percentage inhibition (Human Melanocortin (MC3))	A7 radioligand binding, percentage inhibition (Human μ-opioid (MOP))	A9 radioligand binding, percentage inhibition [1]	A6 radioligand binding, percentage inhibition [2]	A11 radioligand binding, percentage inhibition (Mouse urotensin (mUR2))	A5 radioligand binding, percentage inhibition (Human melanocortin (MC5))	A1 radioligand binding, percentage inhibition (Human δ-opioid (DOP))	further results
COC1O[C@H](COCC(=O)O)[C@@H](O)[C@H](OCc2ccccc2)[C@H]1NC(=O)c1cnc[nH]1 (stereo partly drawn) [compound 128]	+ (“+” indicates greater than 50% inhibition at 10 μM)	− (“−” indicates less than 50% inhibition at 10 μM)	− (“−” indicates less than 50% inhibition at 10 μM)	− (“−” indicates less than 50% inhibition at 10 μM)	− (“−” indicates less than 50% inhibition at 10 μM)	− (“−” indicates less than 50% inhibition at 10 μM)	− (“−” indicates less than 50% inhibition at 10 μM)	− (“−” indicates less than 50% inhibition at 10 μM)	− (“−” indicates less than 50% inhibition at 10 μM)	− (“−” indicates less than 50% inhibition at 10 μM)	− (“−” indicates less than 50% inhibition at 10 μM)	–
CO[C@H]1[C@H](O)[C@@H](COCc2ccc(Cl)cc2)OC(OCc2cccc(O)c2)[C@@H]1NC(=O)CCCNC(=N)N (stereo partly drawn) [compound 170]	+ (“+” indicates greater than 50% inhibition at 10 μM)	− (“−” indicates less than 50% inhibition at 10 μM)	− (“−” indicates less than 50% inhibition at 10 μM)	− (“−” indicates less than 50% inhibition at 10 μM)	− (“−” indicates less than 50% inhibition at 10 μM)	+ (“+” indicates greater than 50% inhibition at 10 μM)	− (“−” indicates less than 50% inhibition at 10 μM)	− (“−” indicates less than 50% inhibition at 10 μM)	− (“−” indicates less than 50% inhibition at 10 μM)	+ (“+” indicates greater than 50% inhibition at 10 μM)	− (“−” indicates less than 50% inhibition at 10 μM)	–
CO[C@H]1[C@H](O)[C@@H](COCc2ccc3ccccc3c2)OC(OCc2ccccc2)[C@@H]1NC(=O)CNC(=N)N (stereo partly drawn) [compound 86]	–	–	–	–	–	–	–	–	–	–	–	A8 radioligand binding inhibition (Human neurokinin (NK1); human neurokinin NK1 membranes): + (“+” indicates greater than 50% inhibition at 10 μM); A2 radioligand binding inhibition (Human κ-Opioid (KOP); human κ-opioid (KOP) membranes): − (“−” indicates less than 50% inhibition at 10 μM); A4 radioligand binding inhibition (Human Melanocortin (MC4); human melanocortin MC4 membranes): + (“+” indicates greater than 50% inhibition at 10 μM); A10 radioligand binding inhibition (Human opioid (ORL1); human ORL1 membranes): − (“−” indicates less than 50% inhibition at 10 μM); A3 radioligand binding inhibition (Human Melanocortin (MC3); human melanocortin MC3 membranes): + (“+” indicates greater than 50% inhibition at 10 μM); A7 radioligand binding inhibition (Human μ-opioid (MOP); human μ-opioid (MOP) membranes): + (“+” indicates greater than 50% inhibition at 10 μM); A9 radioligand binding inhibition ([1]; human NPY-Y1 membranes): − (“−” indicates less than 50% inhibition at 10 μM); A6 radioligand binding inhibition ([2]; human MCH1 membranes): − (“−” indicates less than 50% inhibition at 10 μM); A11 radioligand binding inhibition (Mouse urotensin (mUR2); mouse urotensin mUR2 membranes): − (“−” indicates less than 50% inhibition at 10 μM); A5 radioligand binding inhibition (Human melanocortin (MC5); human melanocortin MC5 membranes): + (“+” indicates greater than 50% inhibition at 10 μM); A1 radioligand binding inhibition (Human δ-opioid (DOP); human δ-opioid (DOP) membranes): − (“−” indicates less than 50% inhibition at 10 μM)
